# US9302999B2, “Substituted triazoles as herbicides” (E. I. DU PONT DE NEMOURS AND COMPANY, priority 2012, dated 2016)
# Assays:
# Assay type in all cases: in vivo
# rice (Oryza sativa) = experiment: Test B flooded paddy: rice; conditions: Flood; 250 g ai/ha; applied to paddy water at 2-leaf stage; visually evaluated after 13 to 15 days
# In short: (§1)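 Response scored visually, 0–100 relative to controls, 13–15 days after the compound was applied into paddy water; plants were at the 2-leaf stage in pots kept flooded to 3 cm.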
# [1] = test system: woolly cupgrass (Eriochloa villosa); experiment: Test C pre-/postemergence: woolly cupgrass
# In short: (§2)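 Preemergence on seeds in loam/sand, postemergence on 2–18 cm (1–4-leaf) plants in peat-based medium; compounds in non-phytotoxic solvent with surfactant. After 13–15 days in greenhouse, visual rating versus controls, 0 (no effect) to 100 (complete control).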
# [2] = test system: bermudagrass (Cynodon dactylon); experiment: Test C pre-/postemergence: bermudagrass
# In short: as §2
# [3] = test system: deadnettle (henbit deadnettle, Lamium amplexicaule); experiment: Test C postemergence: deadnettle
# In short: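 Greenhouse pot test; foliar postemergence treatment at 1- to 4-leaf stage. Rated visually at 13 to 15 days on a 0–100 control scale relative to untreated plants.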
# [4] = test system: ducksalad (Heteranthera limosa); experiment: Test B flooded paddy: ducksalad; conditions: Flood; 250 g ai/ha; applied to paddy water at 2-leaf stage; visually evaluated after 13 to 15 days
# In short: as §1
# corn (Zea mays) = experiment: Test C pre-/postemergence: corn
# In short: as §2
# [5] = test system: surinam grass (Brachiaria decumbens); experiment: Test C pre-/postemergence: surinam grass
# In short: as §2
# [6] = test system: velvetleaf (Abutilon theophrasti); experiment: Test C pre-/postemergence: velvetleaf
# In short: as §2
# [7] = test system: lambsquarters (Chenopodium album); experiment: Test C pre-/postemergence: lambsquarters
# In short: as §2
# soybean (Glycine max) = experiment: Test C pre-/postemergence: soybean
# In short: as §2
# wild oat (Avena fatua) = experiment: Test C pre-/postemergence: wild oat
# In short: as §2
# [8] = test system: sedge, umbrella (small-flower umbrella sedge Cyperus difformis); experiment: Test B flooded paddy: sedge, umbrella; conditions: Flood; 250 g ai/ha; applied to paddy water at 2-leaf stage; visually evaluated after 13 to 15 days
# In short: as §1
# [9] = test system: foxtail, giant (giant foxtail, Setaria faberii); experiment: Test C pre-/postemergence: foxtail, giant
# In short: as §2
# [10] = Postemergence, 31 g ai/ha, scale 0 to 100 (0 no effect, 100 complete control)
# [11] = Postemergence, 62 g ai/ha, scale 0 to 100 (0 no effect, 100 complete control)
# [12] = Postemergence, 125 g ai/ha, scale 0 to 100, 0 no effect, 100 complete control
# [13] = Postemergence, 250 g ai/ha, scale 0 to 100
# [14] = Preemergence, 31 g ai/ha, scale of 0 to 100, 0 is no effect, 100 is complete control
# [15] = Preemergence, 62 g ai/ha, scale of 0 to 100, 0 is no effect, 100 is complete control
# [16] = Preemergence, 125 g ai/ha, scale 0 to 100, 0 no effect, 100 complete control
# [17] = Preemergence, 250 g ai/ha, scale 0 to 100, 0 no effect, 100 complete control
# [18] = Preemergence, 62 g ai/ha, scale 0 to 100, 0 no effect, 100 complete control
# [19] = 31 g ai/ha, scale 0 to 100 (0 no effect, 100 complete control)
# [20] = 62 g ai/ha, scale 0 to 100 (0 no effect, 100 complete control)
# [21] = 125 g ai/ha, scale 0 to 100, 0 no effect, 100 complete control
compound,measurement,setting,value
Fc1ccc(-n2nc(Cc3ccnc(C(F)(F)F)c3)c(OC(F)F)n2)cc1 [Compound 25],"Plant response rating, Rice (0 to 100 scale, 0 is no effect, 100 is complete control)",rice (Oryza sativa),35
same,"Plant response rating, Cupgrass, Woolly",[1]; [10],25
same,"Plant response rating, Cupgrass, Woolly",[1]; [11],25
same,"Plant response rating, Cupgrass, Woolly",[1]; [12],25
same,"Plant response rating, Cupgrass, Woolly",[1]; [13],45
same,"Plant response rating, Cupgrass, Woolly",[1]; [14],20
same,"Plant response rating, Cupgrass, Woolly",[1]; [15],40
same,"Plant response rating, Cupgrass, Woolly",[1]; [16],65
same,"Plant response rating, Cupgrass, Woolly",[1]; [17],98
same,"Plant response rating, Bermudagrass",[2]; [10],15
same,"Plant response rating, Bermudagrass",[2]; [11],20
same,"Plant response rating, Bermudagrass",[2]; [12],25
same,"Plant response rating, Bermudagrass",[2]; [13],25
same,"Plant response rating, Bermudagrass",[2]; [14],85
same,"Plant response rating, Bermudagrass",[2]; [18],98
same,"Plant response rating, Bermudagrass",[2]; [16],98
same,"Plant response rating, Bermudagrass",[2]; [17],100
same,"Plant response rating, Deadnettle",[3]; [19],50
same,"Plant response rating, Deadnettle",[3]; [20],55
same,"Plant response rating, Deadnettle",[3]; [21],90
same,"Plant response rating, Deadnettle","[3]; 250 g ai/ha, scale 0 to 100",100
same,"Plant response rating, Ducksalad (0 to 100 scale, 0 is no effect, 100 is complete control)",[4],90
same,"Plant response rating, Corn",corn (Zea mays); [10],20
same,"Plant response rating, Corn",corn (Zea mays); [11],20
same,"Plant response rating, Corn",corn (Zea mays); [12],20
same,"Plant response rating, Corn",corn (Zea mays); [13],25
same,"Plant response rating, Corn",corn (Zea mays); [14],0
same,"Plant response rating, Corn",corn (Zea mays); [18],0
same,"Plant response rating, Corn",corn (Zea mays); [16],5
same,"Plant response rating, Corn",corn (Zea mays); [17],10
same,"Plant response rating, Surinam Grass",[5]; [10],10
same,"Plant response rating, Surinam Grass",[5]; [11],15
same,"Plant response rating, Surinam Grass",[5]; [12],20
same,"Plant response rating, Surinam Grass",[5]; [13],20
same,"Plant response rating, Surinam Grass",[5]; [14],15
same,"Plant response rating, Surinam Grass",[5]; [15],20
same,"Plant response rating, Surinam Grass",[5]; [16],55
same,"Plant response rating, Surinam Grass",[5]; [17],100
same,"Plant response rating, Velvetleaf",[6]; [10],15
same,"Plant response rating, Velvetleaf",[6]; [11],15
same,"Plant response rating, Velvetleaf",[6]; [12],45
same,"Plant response rating, Velvetleaf",[6]; [13],50
same,"Plant response rating, Velvetleaf",[6]; [14],0
same,"Plant response rating, Velvetleaf",[6]; [15],5
same,"Plant response rating, Velvetleaf",[6]; [16],15
same,"Plant response rating, Velvetleaf",[6]; [17],70
same,"Plant response rating, Lambsquarters",[7]; [10],70
same,"Plant response rating, Lambsquarters",[7]; [11],80
same,"Plant response rating, Lambsquarters",[7]; [12],98
same,"Plant response rating, Lambsquarters",[7]; [13],98
same,"Plant response rating, Lambsquarters",[7]; [14],90
same,"Plant response rating, Lambsquarters",[7]; [15],90
same,"Plant response rating, Lambsquarters",[7]; [16],98
same,"Plant response rating, Lambsquarters",[7]; [17],98
same,"Plant response rating, Soybean",soybean (Glycine max); [10],25
same,"Plant response rating, Soybean",soybean (Glycine max); [11],30
same,"Plant response rating, Soybean",soybean (Glycine max); [12],30
same,"Plant response rating, Soybean",soybean (Glycine max); [13],30
same,"Plant response rating, Soybean",soybean (Glycine max); [14],0
same,"Plant response rating, Soybean",soybean (Glycine max); [15],0
same,"Plant response rating, Soybean",soybean (Glycine max); [16],0
same,"Plant response rating, Soybean",soybean (Glycine max); [17],10
same,"Plant response rating, Oat, Wild",wild oat (Avena fatua); [10],5
same,"Plant response rating, Oat, Wild",wild oat (Avena fatua); [11],5
same,"Plant response rating, Oat, Wild",wild oat (Avena fatua); [12],30
same,"Plant response rating, Oat, Wild",wild oat (Avena fatua); [13],30
same,"Plant response rating, Oat, Wild",wild oat (Avena fatua); [14],20
same,"Plant response rating, Oat, Wild",wild oat (Avena fatua); [15],30
same,"Plant response rating, Oat, Wild",wild oat (Avena fatua); [16],80
same,"Plant response rating, Oat, Wild",wild oat (Avena fatua); [17],90
same,"Plant response rating, Sedge, Umbrella (0 to 100 scale, 0 is no effect, 100 is complete control)",[8],95
same,"Plant response rating, Foxtail, Giant",[9]; [10],35
same,"Plant response rating, Foxtail, Giant",[9]; [11],45
same,"Plant response rating, Foxtail, Giant",[9]; [12],55
same,"Plant response rating, Foxtail, Giant",[9]; [13],60
same,"Plant response rating, Foxtail, Giant",[9]; [14],98
same,"Plant response rating, Foxtail, Giant",[9]; [15],100
same,"Plant response rating, Foxtail, Giant",[9]; [16],100
same,"Plant response rating, Foxtail, Giant",[9]; [17],100
FC(F)Oc1nn(-c2ccc(C(F)(F)F)cc2)nc1Cc1ccnc(C(F)(F)F)c1 [Compound 26],"Plant response rating, Rice (0 to 100 scale, 0 is no effect, 100 is complete control)",rice (Oryza sativa),80
same,"Plant response rating, Cupgrass, Woolly",[1]; [10],25
same,"Plant response rating, Cupgrass, Woolly",[1]; [11],40
same,"Plant response rating, Cupgrass, Woolly",[1]; [12],45
same,"Plant response rating, Cupgrass, Woolly",[1]; [13],55
same,"Plant response rating, Cupgrass, Woolly",[1]; [14],10
same,"Plant response rating, Cupgrass, Woolly",[1]; [15],65
same,"Plant response rating, Cupgrass, Woolly",[1]; [16],70
same,"Plant response rating, Cupgrass, Woolly",[1]; [17],90
same,"Plant response rating, Bermudagrass",[2]; [10],20
same,"Plant response rating, Bermudagrass",[2]; [11],20
same,"Plant response rating, Bermudagrass",[2]; [12],30
same,"Plant response rating, Bermudagrass",[2]; [13],30
same,"Plant response rating, Bermudagrass",[2]; [14],75
same,"Plant response rating, Bermudagrass",[2]; [18],100
same,"Plant response rating, Bermudagrass",[2]; [16],100
same,"Plant response rating, Bermudagrass",[2]; [17],100
same,"Plant response rating, Deadnettle",[3]; [19],98
same,"Plant response rating, Deadnettle",[3]; [20],98
same,"Plant response rating, Deadnettle",[3]; [21],98
same,"Plant response rating, Deadnettle","[3]; 250 g ai/ha, scale 0 to 100",100
same,"Plant response rating, Ducksalad (0 to 100 scale, 0 is no effect, 100 is complete control)",[4],40
same,"Plant response rating, Corn",corn (Zea mays); [10],20
same,"Plant response rating, Corn",corn (Zea mays); [11],20
same,"Plant response rating, Corn",corn (Zea mays); [12],20
same,"Plant response rating, Corn",corn (Zea mays); [13],25
same,"Plant response rating, Corn",corn (Zea mays); [14],0
same,"Plant response rating, Corn",corn (Zea mays); [18],5
same,"Plant response rating, Corn",corn (Zea mays); [16],5
same,"Plant response rating, Corn",corn (Zea mays); [17],5
same,"Plant response rating, Surinam Grass",[5]; [10],15
same,"Plant response rating, Surinam Grass",[5]; [11],20
same,"Plant response rating, Surinam Grass",[5]; [12],25
same,"Plant response rating, Surinam Grass",[5]; [13],45
same,"Plant response rating, Surinam Grass",[5]; [14],10
same,"Plant response rating, Surinam Grass",[5]; [15],50
same,"Plant response rating, Surinam Grass",[5]; [16],65
same,"Plant response rating, Surinam Grass",[5]; [17],90
same,"Plant response rating, Velvetleaf",[6]; [10],25
same,"Plant response rating, Velvetleaf",[6]; [11],50
same,"Plant response rating, Velvetleaf",[6]; [12],55
same,"Plant response rating, Velvetleaf",[6]; [13],85
same,"Plant response rating, Velvetleaf",[6]; [14],25
same,"Plant response rating, Velvetleaf",[6]; [15],35
same,"Plant response rating, Velvetleaf",[6]; [16],75
same,"Plant response rating, Velvetleaf",[6]; [17],100
same,"Plant response rating, Lambsquarters",[7]; [10],80
same,"Plant response rating, Lambsquarters",[7]; [11],95
same,"Plant response rating, Lambsquarters",[7]; [12],98
same,"Plant response rating, Lambsquarters",[7]; [13],98
same,"Plant response rating, Lambsquarters",[7]; [14],70
same,"Plant response rating, Lambsquarters",[7]; [15],98
same,"Plant response rating, Lambsquarters",[7]; [16],98
same,"Plant response rating, Lambsquarters",[7]; [17],100
same,"Plant response rating, Soybean",soybean (Glycine max); [10],35
same,"Plant response rating, Soybean",soybean (Glycine max); [11],40
same,"Plant response rating, Soybean",soybean (Glycine max); [12],50
same,"Plant response rating, Soybean",soybean (Glycine max); [13],55
same,"Plant response rating, Soybean",soybean (Glycine max); [14],0
same,"Plant response rating, Soybean",soybean (Glycine max); [15],5
same,"Plant response rating, Soybean",soybean (Glycine max); [16],5
same,"Plant response rating, Soybean",soybean (Glycine max); [17],15
same,"Plant response rating, Oat, Wild",wild oat (Avena fatua); [10],10
same,"Plant response rating, Oat, Wild",wild oat (Avena fatua); [11],30
same,"Plant response rating, Oat, Wild",wild oat (Avena fatua); [12],40
same,"Plant response rating, Oat, Wild",wild oat (Avena fatua); [13],85
same,"Plant response rating, Oat, Wild",wild oat (Avena fatua); [14],45
same,"Plant response rating, Oat, Wild",wild oat (Avena fatua); [15],70
same,"Plant response rating, Oat, Wild",wild oat (Avena fatua); [16],70
same,"Plant response rating, Oat, Wild",wild oat (Avena fatua); [17],95
same,"Plant response rating, Sedge, Umbrella (0 to 100 scale, 0 is no effect, 100 is complete control)",[8],90
same,"Plant response rating, Foxtail, Giant",[9]; [10],25
same,"Plant response rating, Foxtail, Giant",[9]; [11],30
same,"Plant response rating, Foxtail, Giant",[9]; [12],45
same,"Plant response rating, Foxtail, Giant",[9]; [13],60
same,"Plant response rating, Foxtail, Giant",[9]; [14],98
same,"Plant response rating, Foxtail, Giant",[9]; [15],100
same,"Plant response rating, Foxtail, Giant",[9]; [16],100
same,"Plant response rating, Foxtail, Giant",[9]; [17],100
